Results as given in the supplement of paper PMC10307832.

Legend:
Assay in all cases: relative viability (nuclei count vs DMSO), 5 days (fraction); higher = more cells survive
[1] = compound: COc1ccc(-c2ccc3c(N4CCOC[C@@H]4C)nc(N4CCOC[C@@H]4C)nc3n2)cc1CO [AZD8055] + CC(=O)c1c(C)c2cnc(Nc3ccc(N4CCNCC4)cn3)nc2n(C2CCCC2)c1=O [Palbociclib] (partner 0.5 µM)
Outline: (§1)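 Medians of duplicate plates are given as relative viability. That measure is the nuclei count in treated wells divided by the count in vehicle wells. Counts were taken on 4× images of lung cancer cell lines in 1536-well plates, 5 days after pin-tool dosing the day after seeding with one drug alone or a fixed anchor-drug dose plus five library-drug doses (not always all listed) in √10 steps.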

[2] = compound: COc1ccc(-c2ccc3c(N4CCOC[C@@H]4C)nc(N4CCOC[C@@H]4C)nc3n2)cc1CO [AZD8055] + Cc1nc(NC(=O)N2CCC[C@H]2C(N)=O)sc1-c1ccnc(C(C)(C)C(F)(F)F)c1 [Alpelisib] (partner 2 µM)
Outline: as §1

[3] = compound: COc1ccc(-c2ccc3c(N4CCOC[C@@H]4C)nc(N4CCOC[C@@H]4C)nc3n2)cc1CO [AZD8055] + Nc1nc2[nH]cc(CCc3ccc(C(=O)N[C@@H](CCC(=O)O)C(=O)O)cc3)c2c(=O)[nH]1 [Pemetrexed] (partner 0.2 µM)
Outline: as §1

[4] = compound: COc1ccc(-c2ccc3c(N4CCOC[C@@H]4C)nc(N4CCOC[C@@H]4C)nc3n2)cc1CO [AZD8055] + O=C(c1cc(Cc2n[nH]c(=O)c3ccccc23)ccc1F)N1CCN(C(=O)C2CC2)CC1 [Olaparib] (partner 8 µM)
Outline: as §1

Cell Line | relative viability ([1]; first compound 0.01 µM) | relative viability ([1]; first compound 0.03162 µM) | relative viability ([1]; first compound 0.1 µM) | relative viability ([1]; first compound 0.3162 µM) | relative viability ([1]; first compound 1 µM) | relative viability ([2]; first compound 0.01 µM) | relative viability ([2]; first compound 0.03162 µM) | relative viability ([2]; first compound 0.1 µM) | relative viability ([2]; first compound 0.3162 µM) | relative viability ([2]; first compound 1 µM) | relative viability ([3]; first compound 0.01 µM) | relative viability ([3]; first compound 0.03162 µM) | relative viability ([3]; first compound 0.1 µM) | relative viability ([3]; first compound 0.3162 µM) | relative viability ([3]; first compound 1 µM) | relative viability ([4]; first compound 0.01 µM) | relative viability ([4]; first compound 0.03162 µM) | relative viability ([4]; first compound 0.1 µM) | relative viability ([4]; first compound 0.3162 µM) | relative viability ([4]; first compound 1 µM)
RERF-LC-KJ | 1.11 | 1.09 | 0.779 | 0.441 | 0.412 | 0.77 | 0.576 | 0.552 | 0.4 | 0.442 | 0.51 | 0.499 | 0.428 | 0.396 | 0.373 | 0.963 | 1.08 | 0.669 | 0.429 | 0.404
SK-LU-1 | 0.401 | 0.32 | 0.288 | 0.299 | 0.261 | 1.03 | 0.643 | 0.384 | 0.687 | 0.342 | 1.09 | 0.874 | 0.69 | 0.444 | 0.371 | 0.442 | 0.412 | 0.345 | 0.305 | 0.254
SK-MES-1 | 0.284 | 0.247 | 0.24 | 0.228 | 0.249 | 0.856 | 0.64 | 0.542 | 0.303 | 0.269 | 0.947 | 0.892 | 0.833 | 0.408 | 0.326 | 0.748 | 0.484 | 0.328 | 0.208 | 0.262
SW 1573 | 0.342 | 0.324 | 0.159 | 0.145 | 0.133 | 0.707 | 0.51 | 0.55 | 0.301 | 0.211 | 0.938 | 0.728 | 0.653 | 0.285 | 0.18 | 0.555 | 0.417 | 0.325 | 0.17 | 0.16
UMC-11 | 0.341 | 0.32 | 0.299 | 0.295 | 0.288 | 1.06 | 0.737 | 0.549 | 0.232 | 0.22 | 0.76 | 0.629 | 0.525 | 0.302 | 0.264 | 0.376 | 0.323 | 0.335 | 0.223 | 0.269
